Results taken from PubChem BioAssay (NCI).
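How tested: cells in 96-well plates exposed to compound for 48 hours at five concentrations. Abbreviation: GI50, concentration required for 50% inhibition of growth. TGI: concentration producing complete growth inhibition.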

Columns and labels:
Experiment in all cases: inhibition of tumour cell growth, NCI panel, 48 h
CAKI-1 renal = tested on: CAKI-1 renal
HCC-2998 colon = tested on: HCC-2998 colon
NCI-H460 lung = tested on: NCI-H460 lung
NCI-H522 lung = tested on: NCI-H522 lung
OVCAR-5 ovarian = tested on: OVCAR-5 ovarian
SK-MEL-2 melanoma = tested on: SK-MEL-2 melanoma
TK-10 renal = tested on: TK-10 renal
UO-31 renal = tested on: UO-31 renal
HOP-92 NSCLC = tested on: HOP-92 NSCLC
PC-3 prostate = tested on: PC-3 prostate

SMILES | GI50 (CAKI-1 renal) | TGI (CAKI-1 renal) | GI50 (HCC-2998 colon) | TGI (HCC-2998 colon) | GI50 (NCI-H460 lung) | TGI (NCI-H460 lung) | GI50 (NCI-H522 lung) | TGI (NCI-H522 lung) | GI50 (OVCAR-5 ovarian) | TGI (OVCAR-5 ovarian) | GI50 (SK-MEL-2 melanoma) | TGI (SK-MEL-2 melanoma) | GI50 (TK-10 renal) | TGI (TK-10 renal) | GI50 (UO-31 renal) | TGI (UO-31 renal) | TGI (HOP-92 NSCLC) | GI50 (HOP-92 NSCLC) | GI50 (PC-3 prostate) | TGI (PC-3 prostate)
COc1cc2c(cc1OC)-c1c(c3ccc([N+](=O)[O-])cc3c(=O)n1CCCN=[N+]=[N-])C2=O | 26.3 µM | 70.7 µM | 83.9 µM | > 100 µM | 11.4 µM | > 100 µM | 11.7 µM | > 100 µM | > 100 µM | > 100 µM | > 100 µM | > 100 µM | > 100 µM | > 100 µM | 42.4 µM | > 100 µM |  |  |  | 
CCN(CC)CCCNc1nccc2c(C)c3[nH]c4ccncc4c(=O)c3cc12 |  | 16.8 µM |  | 13.4 µM |  | 7.04 µM |  | 1.86 µM |  | 19.7 µM |  | 9.34 µM |  | 22.5 µM |  | 43.4 µM | 7.64 µM |  |  | 
Nc1nc(N)c(CCCCc2ccccc2)c(/C=C/c2ccc([N+](=O)[O-])cc2)n1 |  | 31.6 µM |  | 9.04 µM |  | 39.5 µM |  | 5.57 µM |  | 15.8 µM |  | 10.8 µM |  | 6.72 µM |  | 8.51 µM | 2.21 µM |  |  | 
CCC1=CCC(P(=O)(c2ccccc2)c2ccccc2)CC1C (stereo not given) |  | > 100 µM |  |  |  | > 100 µM |  | 47.4 µM |  | > 100 µM |  | 83.5 µM |  | > 100 µM |  | 60.5 µM | 71.6 µM |  |  | 
C[C@H]1[C@H](C)CC[C@]2(C(=O)O)CCC3(COC(=O)/C=C/c4ccc(O)cc4)C(=CCC4[C@@]5(C)CC[C@H](O)C(C)(C)C5CC[C@]43C)[C@H]12 (stereo not given in full) |  | 22.1 µM |  | 18.2 µM |  | 11.2 µM |  | 17.1 µM |  | 28.6 µM |  | 43.2 µM |  | 22.3 µM |  | 15.6 µM |  |  |  | 
CCCCCC1CC=CC(NC(=O)OCc2ccccc2)C1/C=C/CCCC1OCCO1 (stereo not given) |  | > 100 µM |  | > 100 µM |  | > 100 µM |  | > 100 µM |  | > 100 µM |  | > 100 µM |  | > 100 µM |  | 72.2 µM | > 100 µM |  |  | 
CCOC1Oc2ccccc2C(=O)/C1=C\Nc1ccc(C(=O)O)c(O)c1 (stereo not given) | 20.9 µM | 44 µM |  |  | 38.9 µM | > 100 µM | > 100 µM | > 100 µM | 43.2 µM | > 100 µM | 46.7 µM | > 100 µM | 22.8 µM | 61.3 µM | 40.2 µM | > 100 µM | 60.6 µM | 19.6 µM | 39.2 µM | > 100 µM
Cc1ccc2c(c1)C(=O)/C(=C/c1cccc(OCC(=O)c3ccc(Cl)cc3)c1)CS2 | 12.4 µM | 37 µM |  |  | 18.8 µM | > 100 µM | 3.94 µM | 18.2 µM | 15.7 µM | 30 µM | 8.03 µM | 22.3 µM | 14.1 µM | 39.5 µM | 2.93 µM | 18.3 µM |  |  | 2.99 µM | 
NS(=O)(=O)c1ccc(-n2nc(-c3ccccc3)cc2-c2cc(O)ccc2O)cc1 | > 100 µM | > 100 µM |  |  | > 100 µM | > 100 µM | > 100 µM | > 100 µM | 25.3 µM | 92.6 µM | > 100 µM | > 100 µM | 35.9 µM | 95.2 µM | > 100 µM | > 100 µM | > 100 µM | > 100 µM | 77.6 µM | > 100 µM
